Data as given in US12600732B2, “Bifunctional compounds for degrading BTK via ubiquitin proteosome pathway” (NURIX THERAPEUTICS, INC., priority 2019, dated 2026).
Where two headings read alike, the source gives them in different places. Values belong to the compound of their own block, whether it stands above or below them.

Assays:
Aiolos = biological target: T1, Aiolos (Homo sapiens, UniProt Q96SW2+Q9UKT9); test: Aiolos degradation in Mantle Cell Lymphoma lines (flow cytometry); type: cell-based; conditions: treatment time 24 h
T1 construct: endogenous in cells; host or cells: Mino, Rec-1
Excerpt: (§1) Ikaros and Aiolos Degradation in Mantle Cell Lymphoma Lines (Ikaros and Aiolos Flow Cytometry)
(§2) This example evaluates the IMiD activity of CTMs in cellular models of Mantle Cell Lymphoma (MCL). […] These assays are to determine potency of CTMs for degrading IMiD neo-substrates in cellular models of MCL and to generate data to inform efficacy studies in MCL xenografts.

Ikaros = biological target: T2, Ikaros (Homo sapiens, UniProt Q13422+Q96SW2); test: Ikaros degradation in Mantle Cell Lymphoma lines (flow cytometry); type: cell-based; conditions: treatment time 24 h
T2 construct: endogenous in cells; host or cells: Mino, Rec-1
Excerpt: as §1, §2

primary human T cells [1] = test: T cell activation assay, IL-2 secretion (ELISA); type: cell-based
Protocol: (§3) This example evaluates whether CTMs with IMiD activity affect T cell activation. […] These assays were performed to assess whether BTK CTMs with and without IMiD activity affected activation of primary human T cells after stimulation of the T cell receptor with anti-CD3/ati-CD28 stimulation. T cell activation was measured by IL-2 secretion (ELISA assay) and upregulation of activation markers CD25 and CD69 on the surface of T cells (flow cytometry). Data are presented as the fold-change of response relative to baseline (stimulation with anti-CD3/anti-CD28 stimulation in the absence of compound).

primary human T cells [2] = test: T cell activation assay, CD25 and CD69 staining (flow cytometry); type: cell-based; conditions: for CD25 Staining Anti-CD3/Anti-CD28 Stimulation / CD69 Staining Anti-CD3/Anti-CD28 Stimulation: fold-change of response relative to baseline
Protocol: as §3

[3] = tested on: B cell receptor (BCR) signaling; test: B cell activation assay (flow cytometry), mouse B cells; type: cell-based; conditions: treatment 4 h, IgM stimulation 18 h
Protocol: Compound was present throughout the stimulation. Cells were stained with Live/Dead dye (Fisher L34976) and then fluorophore-conjugated antibodies against CD20 (Biolegend 302330), CD3 (BD Pharmingen 557705), CD86 (Biolegend 305416) and CD69 (Biolegend 310906). Stained cells were fixed in PFA and run on an Attune N×T Acoustic Focusing Flow Cytometer (Thermo-Fisher A29004), and data was analyzed using FlowJo (v10.5.3) and GraphPad Prism (v7.00) software. Single live lymphocytes were gated for B cells (CD20+CD3−) and T cells (CD3+CD20−), and the geometric mean fluorescence intensity (MFI) of CD86 and CD69 was calculated for each population. The MFI of the unstimulated sample was used to quantify baseline activation.
This example evaluates whether CTM treatment affects B cell receptor (BCR) signaling. BTK is activated downstream of the B cell receptor and leads to upregulation of activation markers CD86 and CD69 on the surface of B cells.

BTK = biological target: T3, BTK (Mus musculus, UniProt P35991); test: In vivo degradation of BTK in mouse PD experiments with oral dosing; conditions: 24 h
T3 construct: from tissue; host or cells: mouse blood B cells / splenocytes (CD-1 or BALB/c)
Procedure, shortened: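 CD-1 or BALB/c mice dosed by oral gavage, screens at 90 mg/kg for 6 h, later at lower doses/longer times. Blood or splenocyte BTK measured by intracellular flow cytometry (or HTRF); % degradation from B-cell minus T-cell BTK geometric MFI, relative to vehicle.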

[4] = PK data for BTK CTMs (in vivo plasma concentrations); conditions: Mouse Balb/c
Excerpt: The present example evaluates in vivo plasma concentrations of BTK CTMs to develop PK-PD-efficacy relationship and predict human exposure.

BTK C481S = BTK C481S (Homo sapiens, UniProt Q06187, C481S); test: BTK degradation (Total BTK HTRF) in TMD8 cells expressing BTK-C481S; type: cell-based; parameters: endogenous in cells; host or cells: TMD8 BTK-C481S (clone2C3), Cas9 RNP knock-in; conditions: TMD8 BTK-C481S (clone2C3) cells, treatment time 4 h
Protocol: BTK levels were determined using Cisbio Total-BTK HTRF (Homologous Time-Resolved Fluorescence) kit (63ADK064PEG) according to the manufacturer's protocol. Briefly, cells were incubated in 1× supplied lysis buffer for 30 minutes. In an opaque white low volume 96-well plate (Cisbio, 66PL96005), cell lysate was combined with two different specific BTK antibodies, one conjugated with Eu^3+-Cryptate FRET donor and one conjugated with d2 FRET acceptor. Assay controls include wells containing cell lysate with only the Eu^3+-Cryptate FRET donor antibody and wells containing both HTRF antibodies and lysis buffer without cells or control lysate provided by Cisbio. HTRF ratio was calculated as (acceptor signal at 665 nm/donor signal at 620 nm)×10^4. Background HTRF levels were determined from the control well containing the donor, but no acceptor, antibody. Background HTRF levels were subtracted from all samples. Readouts were reported as HTRF levels relative to HTRF levels of DMSO-treated cells. Four-parameter non-linear regressions were performed in GraphPad Prism 7.02 to obtain DC50 values.
BTK Degradation (Total BTK HTRF) at Four Hours in TMD8 Cells Expressing BTK-C481S
This example evaluates the potency of CTM in degrading […]. The BTK binding moieties utilized in CTMs bind to the BTK active site. This example evaluates whether the active site mutation C481S affects CTM-induced degradation of BTK.

TMD8 cells = test: Cell viability assay (CellTiter-Glo), TMD8 cells; conditions: for EC50: Homo sapiens, TMD8, 72 h; for EMAX (% viable cells): TMD8 cells, treatment time 72 h
Protocol: (§4) Cell viability was determined using CellTiter-Glo 2.0 Luminescent Cell Viability Assay (Promega, G9242), which quantitates the amount of ATP present as a proxy for the number of viable cells in culture. Cells were plated with densities between 2000-4000 cells per well in 96-well plates. […] CellTiter-Glo reagent was added to cells at a dilution of 1:20, and the plate was incubated ten minutes at room temperature prior to reading the luminescence signal using an EnVision plate reader. Controls included cells treated with DMSO and wells that contained no cells, only media. Background luminescence signal was determined by control wells containing no cells, only media, and was then subtracted from all sample wells. Luminescence values were then normalized to DMSO-treated wells and reported at proportion viable cells.
Here, the ability of CTMs to affect viability in BTK-dependent cell lines was assessed.

TMD8 C481S cells = test: Cell viability assay (CellTiter-Glo), TMD8 C481S cells; conditions: for EC50: Homo sapiens, TMD8, 72 h; for EMAX (% viable cells): TMD8 C481S cells, treatment time 72 h
Protocol: as §4

[5] = oral dose 30 mg/kg, blood, flow cytometry
[6] = oral dose 30 mg/kg, splenocytes, HTRF

SMILES: CN1CCN([C@@H]2CCCN(c3cnc(C(N)=O)c(Nc4ccc5c(c4)CCN(C4CN(c6ccc7c(c6)C(=O)N(C6CCC(=O)NC6=O)C7=O)C4)C5)n3)C2)C1=O (stereo partly drawn) [Compound 30]
DC50 (Aiolos; Mino cells): 10 nM
DC50 (Aiolos; Rec-1 cells): 34 nM
DC50 (Ikaros; Mino cells): 1100 nM
DC50 (Ikaros; Rec-1 cells): 1000 nM
IL-2 Secretion Anti-CD3/Anti-CD28 Stimulation (primary human T cells [1]; 1.4 nM, fold-change of response relative to baseline): 1.59
IL-2 Secretion Anti-CD3/Anti-CD28 Stimulation (primary human T cells [1]; 37 nM, fold-change of response relative to baseline): 3.82
IL-2 Secretion Anti-CD3/Anti-CD28 Stimulation (primary human T cells [1]; 333 nM, fold-change of response relative to baseline (stimulation without compound)): 3.95
IL-2 secretion compared to baseline (anti-CD3/anti-CD28 stimulation alone) (primary human T cells [1]; primary human T cells): increased IL-2 secretion but not to the level observed with IMiDs
CD25 Staining Anti-CD3/Anti-CD28 Stimulation (primary human T cells [2]; 1.4 nM): 1.01
CD69 Staining Anti-CD3/Anti-CD28 Stimulation (primary human T cells [2]; 1.4 nM): 1.01
CD25 Staining Anti-CD3/Anti-CD28 Stimulation (primary human T cells [2]; 37 nM): 1.14
CD69 Staining Anti-CD3/Anti-CD28 Stimulation (primary human T cells [2]; 37 nM): 1.10
CD25 Staining Anti-CD3/Anti-CD28 Stimulation (primary human T cells [2]; 333 nM): 1.17
CD69 Staining Anti-CD3/Anti-CD28 Stimulation (primary human T cells [2]; 333 nM): 1.16
expression of CD25 and CD69 compared to baseline (anti-CD3/anti-CD28 stimulation alone) (primary human T cells [2]; primary human T cells): unchanged or decreased levels

SMILES: CN1CCN([C@@H]2CCCN(c3cnc(C(N)=O)c(Nc4ccc(C5CN(CC6CCN(c7ccc8c(=O)n(C9CCC(=O)NC9=O)ccc8c7)CC6)C5)cc4)n3)C2)C1=O (stereo partly drawn) [Compound 69]
EC50 ([3]; read-out: CD69 EC50): 0.1 nM
EC50 ([3]; read-out: CD86 EC50): 0.3 nM
% BTK Remaining (BTK; oral dose 0.3 mg/kg, blood, flow cytometry): 112%
% BTK Remaining (BTK; oral dose 3 mg/kg, blood, flow cytometry): 43%
% BTK Remaining (BTK; [5]): 30%
% BTK Remaining (BTK; [6]): 33%
AUC ([4]; 1 mg/kg IV): 0.68 µM·h
clearance ([4]; 1 mg/kg IV): 31.4 mL/min/kg
Vd ([4]; 1 mg/kg IV, read-out: Volume of Distribution): 2.2 L/kg
AUC ([4]; 10 mg/kg PO): 0.078 µM·h
bioavailability ([4]; 10 mg/kg PO): 1%
DC50 (BTK C481S): 0.8 nM

SMILES: NC(=O)c1ncc(N2CCC[C@H](N3CCOC3=O)C2)nc1Nc1ccc(N2CCC(C3CN(c4ccc5c(c4)C(=O)N(C4CCC(=O)NC4=O)C5=O)C3)CC2)cc1 (stereo partly drawn) [Compound 70]
% BTK Remaining (BTK; [6]): 42%
DC50 (BTK C481S): 3.1 nM

SMILES: O=C(c1ccc(Oc2ccccc2)cc1Cl)c1c[nH]c2ncnc(N[C@@H]3CC[C@@H](CO)OC3)c12 [ARQ531]
EC50 ([3]; read-out: CD69 EC50): 50 nM
EC50 ([3]; read-out: CD86 EC50): 70 nM
EC50 (TMD8 cells): 100 nM
EMAX (% viable cells) (TMD8 cells): 16%
EC50 (TMD8 C481S cells): 100 nM
EMAX (% viable cells) (TMD8 C481S cells): 17%

Continued, in another order:

DC50 (BTK C481S): 4.3 nM
SMILES: CN1CCN([C@@H]2CCCN(c3cnc(C(N)=O)c(Nc4ccc(C5CCN(C6CN(Cc7ccc8c(c7)C(=O)N(C7CCC(=O)NC7=O)C8=O)C6)CC5)cc4)n3)C2)C1=O (stereo partly drawn) [Compound 101]
EC50 (TMD8 cells): 93.4 nM
EMAX (% viable cells) (TMD8 cells): 27%
EC50 (TMD8 C481S cells): 431 nM
EMAX (% viable cells) (TMD8 C481S cells): 27%

% BTK Remaining (BTK; [5]): 33%
DC50 (BTK C481S): 7.7 nM
SMILES: NC(=O)c1ncc(N2CCCC3(COC3)C2)nc1Nc1ccc(C2CCN(C[C@H]3CCN(c4ccc5c(c4)C(=O)N(C4CCC(=O)NC4=O)C5=O)C3)CC2)cc1 (stereo partly drawn) [Compound 126]

% BTK Remaining (BTK; [5]): 10%
DC50 (BTK C481S): 8.3 nM
SMILES: NC(=O)c1ncc(N2CCCCC2)nc1Nc1ccc(C2CCN(CC3CCN(c4ccc5c(=O)n(C6CCC(=O)NC6=O)ccc5c4)CC3)CC2)cc1 (stereo not drawn) [Compound 133]
EC50 (TMD8 cells): 6.98 nM
EMAX (% viable cells) (TMD8 cells): 15%
EC50 (TMD8 C481S cells): 6.83 nM
EMAX (% viable cells) (TMD8 C481S cells): 9%
